The target of this assay is human PDE4D3 (PDE4D) (Homo sapiens (Human), UniProt Q08499). The experiment in a line: Phosphodiesterase (PDE)4 inhibitory activity evaluation test ([3H]cAMP hydrolysis by PDE4D enzyme solution). The assay is classed as biochemical. The note with it: recombinant human PDE4D3 expressed in COS-7 cells; [3H]cAMP substrate; 10 min at 30° C.; 2% DMSO. The text has this:
Phosphodiesterase (PDE)4 Inhibitory Activity Evaluation Test
(1) Large Scale Plasmid Preparation
Plasmid containing genes (HPDE4D) coding for human PDE4D3 cDNA (stored in Otsuka America Pharmaceutical, Inc., Maryland Research Laboratories) was transformed in E. coli, cultured on a large scale, and purified using an EndoFree™ Plasmid Maxi Kit (Qiagen).
(2) Abundant Expression and Purification of PDE4D
COS-7 cells derived from African green monkey kidneys were passage cultured in D-MEM media containing 100 units/ml penicillin, 100 μg/ml streptomycin, and 10% FBS. The cells were transfected with the plasmid prepared in (1) above using Lipofectamine™ 2000 (hereinafter referred to as “LF2000”, Invitrogen), following the manufacturer's protocol. The COS-7 cells were inoculated in a 10 cm culture dish on the previous day so as to be 90% confluent on the day of transfection. Culture dishes each containing a plasmid solution (solution A) in which 24 μg of plasmid was diluted in 1.5 ml Opti-MEM I Reduced Serum Medium (Invitrogen) and an LF2000 solution (solution B) in which 60 μl of LF2000 was diluted in 1.5 ml Opti-MEM I Reduced Serum Medium were separately allowed to stand for 5 minutes at room temperature. Solutions A and B were then mixed and the mixture was allowed to stand for 20 minutes at room temperature. The mixture was added to the cultured cells, and incubated at 37° C. (5% CO2) overnight. On the following day, the medium was replaced, and the mixture was further incubated overnight to harvest the cells in the following manner. The cells were washed with PBS (Sigma) once, and 10 ml of a Trypsin-EDTA solution (Sigma) was added to each culture dish. After the solution was distributed to each of the culture dishes, the cells were detached, and the dishes were allowed to stand for about 5 minutes at 37° C. The detached cells from the dishes were suspended in media, collected into centrifuge tubes, and centrifuged at 1200 rpm for 5 minutes at 4° C., and supernatants were removed. The cells were further washed with PBS, and stored at −80° C. KHEM buffer (100 mM Hepes, 50 mM KCl, 10 mM EGTA, 1.92 mM MgCl2, pH 7.4) containing 1 mM DTT, 1 μg/ml antipain, 1 μg/ml aprotinin, 1 μg/ml leupeptin, 1 μg/ml pepstatin A, 157 μg/ml benzamidine, and 120 μg/ml Pefabloc SC was added to the stored cells, and the contents were moved to a glass homogenizer to be homogenized on ice. The cell suspension was centrifuged at 1000 rpm for 5 minutes at 4° C., and the supernatant was further centrifuged at 14000 rpm for one hour. After centrifugation, the supernatant was dispensed into new tubes as PDE4D enzyme solutions, and stored in a deep freezer.
(3) Determination on Dilution Ratio of PDE4D Enzyme Solutions
The PDE4D enzyme solutions prepared in (2) above were dissolved in 20 mM Tris-HCl solution (pH 7.4) to give 10-, 25-, 50-, 100-, 200-, 400-, and 800-fold dilutions of the enzyme solutions. PDE4D activities were measured according to (4) below. The percentage of catalyzed cAMP to total cAMP was calculated, and such a dilution, in which the percentage was between 10% and 30%, was adopted in the inhibitory study below.
(4) Measurement of PDE4D Inhibitory Activity
Necessary amounts of test compounds were weighed, and 100% dimethylsulfoxide (DMSO) was added thereto to adjust the concentration to 10 mM. The solutions were stored in a freezer as stock solutions of each test compound. After being thawed when required, the solutions were diluted 20-fold with 100% DMSO to give a 500 μM concentration. Further, 10-fold serial dilutions were made with 100% DMSO to prepare test compounds of different concentrations. 2 μl of solutions containing one of each of the test compound were separately added into 1.2 ml tubes in which 23 μl of 20 mM Tris-HCl (pH 7.4) had been placed beforehand. […]

Sequence of human PDE4D3 (PDE4D) (Q08499 other isoform, or with tags, fused parts or gaps): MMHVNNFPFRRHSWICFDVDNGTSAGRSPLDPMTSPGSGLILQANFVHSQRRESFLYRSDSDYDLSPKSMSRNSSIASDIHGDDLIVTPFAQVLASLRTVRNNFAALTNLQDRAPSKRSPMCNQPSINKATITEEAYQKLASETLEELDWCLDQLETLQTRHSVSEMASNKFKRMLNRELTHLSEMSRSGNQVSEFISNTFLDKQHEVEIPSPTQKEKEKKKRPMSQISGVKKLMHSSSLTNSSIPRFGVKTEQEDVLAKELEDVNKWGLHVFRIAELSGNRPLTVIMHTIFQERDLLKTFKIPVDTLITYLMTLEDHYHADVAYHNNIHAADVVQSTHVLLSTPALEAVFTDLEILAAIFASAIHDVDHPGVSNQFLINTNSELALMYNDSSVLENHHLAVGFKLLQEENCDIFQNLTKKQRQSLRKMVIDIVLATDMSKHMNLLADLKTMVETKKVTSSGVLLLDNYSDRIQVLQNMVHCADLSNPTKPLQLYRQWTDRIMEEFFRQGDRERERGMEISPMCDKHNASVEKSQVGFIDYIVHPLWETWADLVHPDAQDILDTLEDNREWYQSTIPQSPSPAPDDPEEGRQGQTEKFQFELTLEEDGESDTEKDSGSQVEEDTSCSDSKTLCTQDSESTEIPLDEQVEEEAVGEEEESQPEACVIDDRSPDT

For `COc1ccc(-c2nc(CNC(=O)c3ncccc3C)co2)cc1OC1Cc2ccccc2C1` [Example 22, N-{2-[3-(indan-2-yloxy)-4-methoxyphenyl]oxazol-4-ylmethyl}-3-methylpicolinamide], the half-inhibitory concentration (IC50) was less than 50 nM.

Turning to `Cc1cccnc1C(=O)NCc1coc(-c2ccc(OC(F)F)c(OCC3CC3)c2)n1` [Example 98, N-[2-(3-cyclopropylmethoxy-4-difluoromethoxyphenyl)oxazol-4-ylmethyl]-3-methylpicolinamide], the IC50 is less than 50 nM.

For `COc1ccc(-c2nc(CCC(=O)c3ccccc3OCC(F)F)co2)cc1OCC(F)F` [Example 284, 3-{2-[3-(2,2-difluoroethoxy)-4-methoxyphenyl]oxazol-4-yl}-1-[2-(2,2-difluoroethoxy)phenyl]propan-1-one], the IC50 was less than 50 nM.

As for `CCOc1ccc(-c2nc(CCC(=O)c3ccccc3OCCF)co2)cc1OCC` [Example 289, 3-[2-(3,4-diethoxyphenyl)oxazol-4-yl]-1-[2-(2-fluoroethoxy)phenyl]propan-1-one], the IC50 was less than 50 nM.

For the compound `COc1ccc(-c2nc(CNC(=O)c3ncccc3C)co2)cc1OCC(C)C` [Example 62, N-[2-(3-isobutoxy-4-methoxyphenyl)oxazol-4-ylmethyl]-3-methylpicolinamide], the IC50 was less than 50 nM.

Consider `COc1ccc(-c2nc(CNC(=O)c3ccccc3OC)co2)cc1OC1CCCC1` [Example 35, N-[2-(3-cyclopentyloxy-4-methoxyphenyl)oxazol-4-ylmethyl]-2-methoxybenzamide], for which the 50% inhibitory concentration (IC50) was less than 50 nM.

On to `COc1ccc(-c2nc(CCC(=O)c3ccccc3OCC(F)F)co2)cc1OC(C)C` [Example 278, 1-[2-(2,2-difluoroethoxy)phenyl]-3-[2-(3-isopropoxy-4-methoxyphenyl)oxazol-4-yl]propan-1-one], for which the half-inhibitory concentration (IC50) is less than 50 nM.

For `COc1ccc(-c2nc(CNC(=O)c3ncccc3C)co2)cc1OC(C)C` [Example 384, N-[2-(4-methoxy-3-isopropoxyphenyl)oxazol-4-ylmethyl]-3-methylpicolinamide], the half-maximal inhibitory concentration (IC50) is less than 50 nM.

On to `COc1ccc(-c2nc(CCC(=O)c3ncccc3C)co2)cc1OCC(F)(F)F` [Example 155, 3-{2-[4-methoxy-3-(2,2,2-trifluoroethoxy)phenyl]oxazol-4-yl}-1-(3-methylpyridin-2-yl)propan-1-one], for which the IC50 is less than 50 nM.

Take `CCC(CC)Oc1cc(-c2nc(CCC(=O)c3ncccc3C)co2)ccc1OC` [Example 312, 3-{2-[3-(1-ethylpropoxy)-4-methoxyphenyl]oxazol-4-yl}-1-(3-methylpyridin-2-yl)propan-1-one]: the half-maximal inhibitory concentration (IC50) is less than 50 nM.

On to `Cc1cccnc1C(=O)CCc1coc(-c2ccc(OC(F)F)c(OCC3CC3)c2)n1` [Example 328, 3-[2-(3-cyclopropylmethoxy-4-difluoromethoxyphenyl)oxazol-4-yl]-1-(3-methylpyridin-2-yl)propan-1-one], for which the IC50 is less than 50 nM.

As to `C=CCOc1cc(-c2nc(CNC(=O)c3ncccc3C)co2)ccc1OC(F)F` [Example 339, N-[2-(3-allyloxy-4-difluoromethoxyphenyl)oxazol-4-ylmethyl]-3-methylpicolinamide], the IC50 is less than 50 nM.

In the case of `CCOc1ccccc1C(=O)CCc1coc(-c2ccc(OC)c(OC(C)C)c2)n1` [Example 111, 1-(2-ethoxyphenyl)-3-[2-(3-isopropoxy-4-methoxyphenyl)oxazol-4-yl]propan-1-one], the half-inhibitory concentration (IC50) is less than 50 nM.

In the case of `CCOc1ccccc1C(=O)CCc1coc(-c2ccc(OC)c(OCC(F)F)c2)n1` [Example 314, 3-{2-[3-(2,2-difluoroethoxy)-4-methoxyphenyl]oxazol-4-yl}-1-(2-ethoxyphenyl)propan-1-one], the IC50 is less than 50 nM.

For `CCOc1cc(-c2nc(CNC(=O)c3ncccc3C)co2)ccc1OC(F)F` [Example 338, N-[2-(4-difluoromethoxy-3-ethoxyphenyl)-oxazol-4-ylmethyl]-3-methylpicolinamide], the IC50 is less than 50 nM.

On to `COc1ccc(-c2nc(CNC(=O)c3ncccc3C)co2)cc1OCC1CC1` [Example 36, N-[2-(3-cyclopropylmethoxy-4-methoxyphenyl)oxazol-4-ylmethyl]-3-methylpicolinamide], for which the half-maximal inhibitory concentration (IC50) was less than 50 nM.

Regarding `C=CCOc1cc(-c2nc(CCC(=O)c3ccccc3OCC(F)F)co2)ccc1OC` [Example 281, 3-[2-(3-allyloxy-4-methoxyphenyl)oxazol-4-yl]-1-[2-(2,2-difluoroethoxy)phenyl]propan-1-one], the IC50 was less than 50 nM.

With `COc1ccc(-c2nc(CCC(=O)c3ccccc3OC)co2)cc1OC(C)C` [Example 169, 3-[2-(3-isopropoxy-4-methoxyphenyl)oxazol-4-yl]-1-(2-methoxyphenyl)propan-1-one], the IC50 was less than 50 nM.

As to `CCOc1cccnc1C(=O)NCc1coc(-c2ccc(OC)c(OC3CCCC3)c2)n1` [Example 29, N-[2-(3-cyclopentyloxy-4-methoxyphenyl)oxazol-4-ylmethyl]-3-ethoxypicolinamide], the 50% inhibitory concentration (IC50) is less than 50 nM.

As to `CCOc1ccccc1C(=O)CCc1coc(-c2ccc(OC)c(OCC3CC3)c2)n1` [Example 102, 3-[2-(3-cycropropylmethoxy-4-methoxyphenyl)oxazol-4-yl]-1-(2-ethoxyphenyl)propan-1-one], the IC50 is less than 50 nM.

On to “3-[2-(3-hydroxy-4-methoxyphenyl)oxazol-4-yl]-1-(2-methoxymethoxy phenyl)propan-1-one [Example 232]”, for which the half-maximal inhibitory concentration (IC50) is less than 50 nM.

As to `CCC(CC)Oc1cc(-c2nc(CNC(=O)c3ncccc3C)co2)ccc1OC(F)F` [Example 342, N-{2-[4-difluoromethoxy-3-(1-ethylpropoxy)phenyl]oxazol-4-ylmethyl}-3-methylpicolinamide], the IC50 is less than 50 nM.

Consider `C=CCOc1cc(-c2nc(CNC(=O)c3ncccc3C)co2)ccc1OC` [Example 21, N-[2-(3-allyloxy-4-methoxyphenyl)oxazol-4-ylmethyl]-3-methylpicolinamide], for which the IC50 is less than 50 nM.

Regarding `CCOc1cccnc1C(=O)CCc1coc(-c2ccc(OC)c(OC3CCCC3)c2)n1` [Example 132, 3-[2-(3-cyclopentyloxy-4-methoxyphenyl)oxazol-4-yl]-1-(3-ethoxypyridin-2-yl)propan-1-one], the half-inhibitory concentration (IC50) was less than 50 nM.

Turning to `CCOc1cc(-c2nc(CCC(=O)c3ccccc3OCC(F)F)co2)ccc1OC` [Example 280, 1-[2-(2,2-difluoroethoxy)phenyl]-3-[2-(3-ethoxy-4-methoxyphenyl)oxazol-4-yl]propan-1-one], the half-maximal inhibitory concentration (IC50) is less than 50 nM.

Regarding `COc1ccc(-c2nc(CNC(=O)c3ccccc3OCC(F)(F)F)co2)cc1OCC1CC1` [Example 32, N-[2-(3-cyclopropylmethoxy-4-methoxyphenyl)oxazol-4-ylmethyl]-2-(2,2,2-trifluoroethoxy)benzamide], the 50% inhibitory concentration (IC50) is less than 50 nM.

For the compound `Cc1cccnc1C(=O)NCc1coc(-c2ccc(OC(F)F)c(OC(C)C)c2)n1` [Example 341, N-[2-(4-difluoromethoxy-3-isopropoxyphenyl)oxazol-4-ylmethyl]-3-methylpicolinamide], the concentration for half-maximal inhibition (IC50) was less than 50 nM.

On to `COc1ccc(-c2nc(CCC(=O)c3ncccc3C)co2)cc1OCC1CCC1` [Example 141, 3-[2-(3-cyclobutylmethoxy-4-methoxyphenyl)oxazol-4-yl]-1-(3-methylpyridin-2-yl)propan-1-one], for which the IC50 is less than 50 nM.

`C=CCOc1cc(-c2nc(CCC(=O)c3ncccc3C)co2)ccc1OC` [Example 140, 3-[2-(3-allyloxy-4-methoxyphenyl)oxazol-4-yl]-1-(3-methylpyridin-2-yl)propan-1-one]: the half-maximal inhibitory concentration (IC50) was less than 50 nM.

The record behind these values is patent USRE46792E1, “Oxazole compound and pharmaceutical composition” (Otsuka Pharmaceutical Co., Ltd., priority 2005, dated 2018).
